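Growth conditions: 96-well plates. Treatment: test compound, 48 hours, 5 concentrations. Analysis: linear interpolation between bracketing concentrations; unreached endpoints set to highest concentration. Abbreviation: GI50, concentration required for 50% inhibition of growth.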 The source made the active and inactive calls. Rule as the data show it: active = GI50 up to about 1.1 µM and inactive = higher.

Test systems include EKVX; MDA-MB-435; IGROV-1; UACC-62; NCI-H23; TK-10; OVCAR-4; OVCAR-5; OVCAR-3; MDA-N; UO-31; HCT-15; PC-3; ACHN; SR; K562; A498; SW-620; SK-MEL-2; HL-60.
Test in all cases: NCI anticancer screen, dose series, 48 h

For `CCOC(=O)c1cc(C(O)P2(=O)N(CC(C)(C)C)[C@@H]3CCCC[C@H]3N2CC(C)(C)C)cn1C(=O)OC(C)(C)C` (stereo not given in full), the GI50 in the experiment on EKVX is 20.5 µM (inactive); with MDA-MB-435 it was 13.9 µM (inactive); with IGROV-1, 4.8 µM (inactive); in the experiment on UACC-62, 13.7 µM (inactive); in the experiment on NCI-H23, 24.3 µM (inactive); in the experiment with TK-10 it was 22.6 µM (inactive). The GI50 in the experiment with OVCAR-4 is 13.9 µM (inactive); with OVCAR-5 it was 17.3 µM (inactive); in the experiment on OVCAR-3, 12.3 µM (inactive); in the experiment with MDA-N, 14.8 µM (inactive); in the experiment on UO-31 it was 15.3 µM (inactive); in the experiment with HCT-15, 17.1 µM. Moreover, the GI50 is 15.9 µM (inactive) in the experiment with PC-3; 28.1 µM (inactive) in the experiment with ACHN; 10.2 µM (inactive) with SR; 20.1 µM (inactive) in the experiment with K562; 23.9 µM (inactive) with A498; 16.2 µM (inactive) with SW-620. The GI50 with SK-MEL-2 was 17.7 µM (inactive); in the experiment on HL-60 it was 24.5 µM (inactive).
Take `O=C(O)CC[P+](c1ccccc1)(c1ccccc1)c1ccccc1`: the GI50 in the experiment with EKVX is 36.8 µM (inactive); in the experiment on MDA-MB-435 it was 26.5 µM (inactive); in the experiment with IGROV-1, 15 µM (inactive); in the experiment with UACC-62, 22.3 µM (inactive); in the experiment with NCI-H23 it was 23.3 µM (inactive); in the experiment on TK-10, > 100 µM (inactive). Also, the GI50 was 46.2 µM (inactive) in the experiment with OVCAR-4; 38.1 µM (inactive) with OVCAR-5; 13.5 µM (inactive) with OVCAR-3; 20.4 µM (inactive) in the experiment with MDA-N; > 100 µM (inactive) in the experiment with UO-31; more than 100 µM in the experiment with HCT-15. Moreover, the GI50 in the experiment on PC-3 is 37.4 µM (inactive); in the experiment with ACHN, > 100 µM (inactive); in the experiment with SR, 50.4 µM (inactive); in the experiment on K562 it was 11.7 µM (inactive); with A498, 42.9 µM (inactive); with SW-620, > 100 µM (inactive). Also, the GI50 was 21.6 µM (inactive) in the experiment on SK-MEL-2 and 11.5 µM (inactive) with HL-60.
Turning to `CC1(C)C=C(/C=C2/N(S(=O)(=O)C(F)(F)F)C(/C=C3/N(S(=O)(=O)C(F)(F)F)C(C)(C#N)CC3(C)C)=CC2(C)C)N=C1/C=C1/CC(C)(C)C(=O)N1` (stereo not given), the GI50 with EKVX is 8.45 µM (inactive); with MDA-MB-435 it was 15 µM (inactive); in the experiment with IGROV-1, 7.24 µM (inactive); with UACC-62, 14.4 µM (inactive); with NCI-H23, 18.8 µM (inactive); in the experiment on TK-10, 71.9 µM (inactive). Further, the GI50 in the experiment with OVCAR-4 was 7.38 µM (inactive); in the experiment with OVCAR-5 it was 57.5 µM (inactive); in the experiment with OVCAR-3, 7.62 µM (inactive); in the experiment on MDA-N, 21.4 µM (inactive); in the experiment on UO-31 it was 35.8 µM (inactive); in the experiment on HCT-15 it was 6.05 µM. Besides, the GI50 was 5.71 µM (inactive) with PC-3; 23.7 µM (inactive) in the experiment on ACHN; 2.8 µM (inactive) in the experiment with SR; 3.11 µM (inactive) with K562; 55.6 µM (inactive) in the experiment on A498; 6.93 µM (inactive) in the experiment with SW-620. The GI50 was 29.5 µM (inactive) with SK-MEL-2 and 1.41 µM (inactive) in the experiment on HL-60.
In the case of `NNC(=O)CSc1nc2ccc(I)cc2c(=O)n1Cc1ccccc1`, the GI50 in the experiment on EKVX is 13.1 µM (inactive); in the experiment with MDA-MB-435, 35.2 µM (inactive); in the experiment on IGROV-1 it was 24.4 µM (inactive); in the experiment on UACC-62, 18.6 µM (inactive); in the experiment on NCI-H23, 31.5 µM (inactive); in the experiment with TK-10, 16.9 µM (inactive). In addition, the GI50 with OVCAR-4 is 19.5 µM (inactive); with OVCAR-5, 20.4 µM (inactive); in the experiment with OVCAR-3, 18.4 µM (inactive); in the experiment on MDA-N, 31.8 µM (inactive); in the experiment on UO-31, 15.9 µM (inactive); in the experiment on HCT-15, 36.6 µM. Moreover, the GI50 in the experiment with PC-3 was 22.8 µM (inactive); in the experiment on ACHN, 18.7 µM (inactive); with SR it was 26.5 µM (inactive); in the experiment with K562, 26.1 µM (inactive); in the experiment on A498, 14.2 µM (inactive); with SW-620, 33 µM (inactive). Besides, the GI50 is 20.4 µM (inactive) in the experiment with SK-MEL-2 and 20.6 µM (inactive) in the experiment with HL-60.
For the molecule `N#Cc1c(Nc2ccccc2)[n+]([O-])c2ccc(Cl)cc2[n+]1[O-]`, the GI50 in the experiment with EKVX was 4.3 µM (inactive); with MDA-MB-435, 8.99 µM (inactive); in the experiment on IGROV-1 it was 1.78 µM (inactive); with UACC-62, 3.71 µM (inactive); with NCI-H23, 5.08 µM (inactive); in the experiment on TK-10, 4.06 µM (inactive). Besides, the GI50 with OVCAR-4 is 1.56 µM (inactive); in the experiment with OVCAR-5, 15.8 µM (inactive); in the experiment on OVCAR-3 it was 2.99 µM (inactive); in the experiment with MDA-N, 11 µM (inactive); with UO-31 it was 2.89 µM (inactive); in the experiment with HCT-15, 1.89 µM. Besides, the GI50 with PC-3 is 3.36 µM (inactive); with ACHN, 2.85 µM (inactive); in the experiment with SR, 3.16 µM (inactive); with K562 it was 3.03 µM (inactive); with A498 it was 7.69 µM (inactive); in the experiment on SW-620, 4.63 µM (inactive). In addition, the GI50 in the experiment with SK-MEL-2 was 18 µM (inactive); in the experiment on HL-60 it was 2.01 µM (inactive).
In the case of `CC(=O)OC1(C)C(=O)OC/C2=C/CN(C)CCC(OC(=O)C(O)(C(C)Cl)CC1C)C2=O.c1ccccc1` (stereo not given), the GI50 with EKVX, in the experiment on MDA-MB-435, in the experiment with IGROV-1, with UACC-62, in the experiment on NCI-H23 and in the experiment with TK-10 was > 100 µM (inactive) in each case. In addition, the GI50 with OVCAR-4 is > 100 µM (inactive); in the experiment with OVCAR-5, > 100 µM (inactive); with OVCAR-3 it was > 100 µM (inactive); with MDA-N it was > 100 µM (inactive); with UO-31, > 100 µM (inactive); in the experiment on HCT-15, more than 100 µM. For the same molecule, the GI50 in the experiment with PC-3, in the experiment on ACHN, with SR, in the experiment with K562, in the experiment with A498 and in the experiment on SW-620 was > 100 µM (inactive) in each case. Besides, the GI50 in the experiment with SK-MEL-2 and with HL-60 was > 100 µM (inactive) throughout.
Regarding `COC(=O)/C=C(/C(=O)OC)c1cc2ccc3c([nH]c4ccccc43)c(C)c-2c1`, the GI50 was 3.76 µM (inactive) in the experiment on EKVX; 3.94 µM (inactive) with MDA-MB-435; 2.74 µM (inactive) in the experiment with IGROV-1; 4.66 µM (inactive) with UACC-62; 3.96 µM (inactive) in the experiment on NCI-H23; 15.2 µM (inactive) in the experiment on TK-10. For the same molecule, the GI50 with OVCAR-4 was 4.95 µM (inactive); in the experiment with OVCAR-5 it was 3.56 µM (inactive); with OVCAR-3, 3.4 µM (inactive); with MDA-N it was 2.9 µM (inactive); in the experiment with UO-31 it was 3.79 µM (inactive); in the experiment on HCT-15, 3.94 µM. Further, the GI50 with PC-3 is 2.68 µM (inactive); with ACHN it was 6.61 µM (inactive); in the experiment with SR, 2.74 µM (inactive); with K562 it was 2.54 µM (inactive); in the experiment with A498, 8.04 µM (inactive); with SW-620, 4.93 µM (inactive). For the same molecule, the results for the GI50 in the experiment on SK-MEL-2 and in the experiment on HL-60 were 7.5 µM (inactive) and 3.15 µM (inactive), respectively.
As for `CCCCCCCCCCCCNC(=O)CCC(NC(=O)c1ccc(N(C)Cc2cnc3nc(N)nc(N)c3n2)cc1)C(=O)NCCCCCCCCCCCC` (stereo not given), the GI50 in the experiment with EKVX is > 100 µM (inactive); with MDA-MB-435, 52.8 µM (inactive); in the experiment with IGROV-1, 36.1 µM (inactive); in the experiment on UACC-62, 55.5 µM (inactive); in the experiment with NCI-H23 it was 53.3 µM (inactive); with TK-10, 38.3 µM (inactive). In addition, the GI50 in the experiment with OVCAR-4 was 64.1 µM (inactive); in the experiment on OVCAR-5 it was > 100 µM (inactive); in the experiment on OVCAR-3 it was 31.5 µM (inactive); with MDA-N, 41.7 µM (inactive); in the experiment with UO-31 it was > 100 µM (inactive); in the experiment on HCT-15, more than 100 µM. Moreover, the GI50 was > 100 µM (inactive) with PC-3; > 100 µM (inactive) in the experiment on ACHN; 11.9 µM (inactive) in the experiment with SR; 18.5 µM (inactive) with K562; 42.8 µM (inactive) in the experiment on A498; 29.6 µM (inactive) in the experiment on SW-620. Also, the GI50 is 30 µM (inactive) in the experiment on SK-MEL-2 and 31.8 µM (inactive) in the experiment on HL-60.
In the case of `CN1CCN(CC(=O)Nc2cccc3ccccc23)CC1`, the GI50 in the experiment on EKVX, in the experiment on MDA-MB-435, with IGROV-1, in the experiment on UACC-62, in the experiment on NCI-H23 and in the experiment with TK-10 was > 100 µM (inactive) each time. For the same molecule, the GI50 with OVCAR-4 is > 100 µM (inactive); with OVCAR-5 it was > 100 µM (inactive); in the experiment on OVCAR-3, > 100 µM (inactive); with MDA-N, > 100 µM (inactive); in the experiment on UO-31, > 100 µM (inactive); in the experiment on HCT-15, more than 100 µM. Besides, the GI50 in the experiment on PC-3, in the experiment on ACHN, in the experiment on SR, with K562, in the experiment with A498 and in the experiment on SW-620 was > 100 µM (inactive) in each case. In addition, the GI50 in the experiment on SK-MEL-2 and in the experiment with HL-60 was > 100 µM (inactive) in each case.
Take `COc1cc2cc3c4c(cc(OC)c(OC)c4c2cc1OC)CCN3C`: the GI50 was 15.3 µM (inactive) in the experiment on EKVX; 5.56 µM (inactive) in the experiment with MDA-MB-435; 4.21 µM (inactive) in the experiment with IGROV-1; 4.83 µM (inactive) with UACC-62; 12.8 µM (inactive) in the experiment on NCI-H23; 4.42 µM (inactive) with TK-10. In addition, the GI50 was 2.51 µM (inactive) with OVCAR-4; 21 µM (inactive) in the experiment with OVCAR-5; 8.05 µM (inactive) with OVCAR-3; 13.1 µM (inactive) in the experiment on MDA-N; 2.11 µM (inactive) in the experiment with UO-31; 6.84 µM with HCT-15. Moreover, the GI50 is 3.52 µM (inactive) with PC-3; 3.66 µM (inactive) with ACHN; 1.25 µM (inactive) with SR; 6.19 µM (inactive) in the experiment on K562; 6.84 µM (inactive) with A498; 7.36 µM (inactive) in the experiment on SW-620. Moreover, the GI50 in the experiment with SK-MEL-2 is 10.3 µM (inactive); in the experiment with HL-60, 5.3 µM (inactive).
